Structures can show the parent of a compound that is named as a salt.
Tested on: HBV
Assay: Determination of HBV DNA from the supernatants of HepAD38 cells (anti-HBV activity)
Format: cell-based, hepatitis B virus
Conditions: Hepatitis B virus, 144 h; HBV DNA in HepAD38 supernatant at day 6; read-out: Cell Activity (EC50)
Protocol: Determination of HBV DNA from the Supernatants of HepAD38 Cells
The anti-HBV activity was analysed in the stable transfected cell line HepAD38, which has been described to secrete high levels of HBV virion particles (Ladner et al., 1997). In brief, HepAD38 cells were cultured at 37° C. at 5% CO2 and 95% humidity in 200 μl maintenance medium, which was Dulbecco's modified Eagle's medium/Nutrient Mixture F-12 (Gibco, Karlsruhe), 10% fetal bovine serum (PAN Biotech Aidenbach) supplemented with 50 μg/ml penicillin/streptomycin (Gibco, Karlsruhe), 2 mM L-glutamine (PAN Biotech, Aidenbach), 400 μg/ml G418 (AppliChem, Darmstadt) and 0.3 μg/ml tetracycline. Cells were subcultured once a week in a 1:5 ratio, but were usually not passaged more than ten times. For the assay 60,000 cells were seeded in maintenance medium without any tetracycline into each well of a 96-well plate and treated with serial half-log dilutions of test compound. To minimize edge effects the outer 36 wells of the plate were not used but were filled with assay medium. On each assay plate six wells for the virus control (untreated HepAD38 cells) and six wells for the cell control (HepAD38 cells treated with 0.3 μg/ml tetracycline) were allocated, respectively. In addition, one plate set with reference inhibitors like BAY 41-4109, entecavir, and lamivudine instead of screening compounds were prepared in each experiment. In general, experiments were performed thrice in triplicates. At day 6 HBV DNA from 100 μl filtrated cell culture supernatant (AcroPrep Advance 96 Filter Plate, […] Supor membran, PALL GmbH, Dreieich) was automatically purified on the MagNa Pure LC instrument using the MagNA Pure 96 DNA and Viral NA Small Volume Kit (Roche Diagnostics, Mannheim) according to the instructions of the manufacturer. EC50 values were calculated from relative copy numbers of HBV DNA. In brief, 5 μl of the 100 μl eluate containing HBV DNA were subjected to PCR LC480 Probes Master Kit (Roche) together with 1 μM antisense primer […], 0.5 μM sense primer […], 0.3 μM hybprobes […]-FL and LC640-[…]-PH (TIBMolBiol, Berlin) to a final volume of 12.5 μl. The PCR was performed on the Light Cycler 480 real time system (Roche Diagnostics, Mannheim) using the following protocol: Pre-incubation for 1 min at 95° C., amplification: 40 cycles×(10 sec at 95° C., 50 sec at 60° C., 1 sec at 70° C.), cooling for 10 sec at 40° C. Viral load was quantitated against known standards using HBV plasmid DNA of pCH-9/3091 (Nassal et al., 1990, Cell 63: 1357-1363) and the LightCycler 480 SW 1.5 software (Roche Diagnostics, Mannheim) and EC50 values were calculated using non-linear regression with GraphPad Prism 6 (GraphPad Software Inc., La Jolla, USA).

| Compound | EC50 |
| --- | --- |
| N#CC12CC(Nc3nc4c(s3)CN(C(=O)c3cc5ccccc5[nH]3)CC4)(C1)C2 [Example 435, 3-{[5-(1H-indole-2-carbonyl)-4H,5H,6H,7H-[1,3]thiazolo[5,4-c]pyridin-2-yl]amino}bicyclo[1.1.1]pentane-1-carbonitrile] | < 1 µM |
| O=C(c1cc2ccccc2[nH]1)N1CCc2nc(NCCn3ccnc3)sc2C1 [Example 349, N-[2-(1H-imidazol-1-yl)ethyl]-5-(1H-indole-2-carbonyl)-4H,5H,6H,7H-[1,3]thiazolo[5,4-c]pyridin-2-amine] | < 1 µM |
| CCc1cc(F)cc2[nH]c(C(=O)N3CCc4nc(NC(=O)C5(C)CC5)sc4C3)cc12 [Example 306, N-[5-(4-ethyl-6-fluoro-1H-indole-2-carbonyl)-4H,5H,6H,7H-[1,3]thiazolo[5,4-c]pyridin-2-yl]-1-methylcyclopropane-1-carboxamide] | < 1 µM |
| O=C(CC1CCOC1)Nc1nc2c(s1)CN(C(=O)c1cc3ccccc3[nH]1)CC2 (stereo not drawn) [Example 351, N-[5-(1H-indole-2-carbonyl)-4H,5H,6H,7H-[1,3]thiazolo[5,4-c]pyridin-2-yl]-2-(oxolan-3-yl)acetamide] | < 1 µM |
| CN1CC(C(=O)Nc2nc3c(s2)CN(C(=O)c2cc4ccccc4[nH]2)CC3)C1 [Example 383, N-[5-(1H-indole-2-carbonyl)-4H,5H,6H,7H-[1,3]thiazolo[5,4-c]pyridin-2-yl]-1-methylazetidine-3-carboxamide] | 1 to 10 µM |
| O=C(c1cc2ccccc2[nH]1)N1CCc2nc(N[C@H]3CCC[C@@H](O)C3)sc2C1 [Example 350, (1R,3S)-3-{[5-(1H-indole-2-carbonyl)-4H,5H,6H,7H-[1,3]thiazolo[5,4-c]pyridin-2-yl]amino}cyclohexan-1-ol] | < 1 µM |
| CC1(C(=O)Nc2nc3c(s2)CN(C(=O)c2cc4cc(F)c(Cl)cc4[nH]2)CC3)CC1 [Example 304, N-[5-(6-chloro-5-fluoro-1H-indole-2-carbonyl)-4H,5H,6H,7H-[1,3]thiazolo[5,4-c]pyridin-2-yl]-1-methylcyclopropane-1-carboxamide] | < 1 µM |
| O=C(c1cc2c(C(F)(F)F)cccc2[nH]1)N1CCc2nc(NCC3(O)CCC3)sc2C1 [Example 374, 1-[({5-[4-(trifluoromethyl)-1H-indole-2-carbonyl]-4H,5H,6H,7H-[1,3]thiazolo[5,4-c]pyridin-2-yl}amino)methyl]cyclobutan-1-ol] | < 1 µM |
| CC1(C(=O)Nc2nc3c(s2)CN(C(=O)c2cc4c(Cl)cccc4[nH]2)CC3)CC1 [Example 308, N-[5-(4-chloro-1H-indole-2-carbonyl)-4H,5H,6H,7H-[1,3]thiazolo[5,4-c]pyridin-2-yl]-1-methylcyclopropane-1-carboxamide] | < 1 µM |
| CCOC(=O)C1(CNc2nc3c(s2)CN(C(=O)c2cc4ccccc4[nH]2)CC3)CC1 [Example 317, Ethyl 1-({[5-(1H-indole-2-carbonyl)-4H,5H,6H,7H-[1,3]thiazolo[5,4-c]pyridin-2-yl]amino}methyl)cyclopropane-1-carboxylate] | 1 to 10 µM |
| CC(O)c1ccc(F)c2[nH]c(C(=O)N3CCc4nc(NCC5CCOC5)sc4C3)cc12 (stereo not drawn) [Example 257, 1-[7-fluoro-2-(2-{[(oxolan-3-yl)methyl]amino}-4H,5H,6H,7H-[1,3]thiazolo[5,4-c]pyridine-5-carbonyl)-1H-indol-4-yl]ethan-1-ol] | < 100 µM |
| O=C(c1cc2ccccc2[nH]1)N1CCc2nc(NC(=O)C3(O)CC3)sc2C1 [Example 346, 1-hydroxy-N-[5-(1H-indole-2-carbonyl)-4H,5H,6H,7H-[1,3]thiazolo[5,4-c]pyridin-2-yl]cyclopropane-1-carboxamide] | < 1 µM |
| Cc1c(F)ccc2[nH]c(C(=O)N3CCc4nc(N)sc4C3)cc12 [Example 437, 5-(5-fluoro-4-methyl-1H-indole-2-carbonyl)-4H,5H,6H,7H-[1,3]thiazolo[5,4-c]pyridin-2-amine] | < 1 µM |
| O=C(c1cc2ccccc2[nH]1)N1CCc2nc(N[C@@H]3CCCC[C@@H]3O)sc2C1 [Example 348, (1S,2R)-2-{[5-(1H-indole-2-carbonyl)-4H,5H,6H,7H-[1,3]thiazolo[5,4-c]pyridin-2-yl]amino}cyclohexan-1-ol] | < 1 µM |
| O=C(Nc1nc2c(s1)CN(C(=O)c1cc3c(F)c(F)ccc3[nH]1)CC2)C1CCOCC1 [Example 398, N-[5-(4,5-difluoro-1H-indole-2-carbonyl)-4H,5H,6H,7H-[1,3]thiazolo[5,4-c]pyridin-2-yl]oxane-4-carboxamide] | < 1 µM |
| O=C(c1cc2ccccc2[nH]1)N1CCc2nc(NCC3(C(=O)O)CC3)sc2C1 [Example 345, 1-({[5-(1H-indole-2-carbonyl)-4H,5H,6H,7H-[1,3]thiazolo[5,4-c]pyridin-2-yl]amino}methyl)cyclopropane-1-carboxylic acid] | 1 to 10 µM |
| O=C(c1cc2cc(F)c(F)cc2[nH]1)N1CCc2nc(NCC3(O)CCC3)sc2C1 [Example 369, 1-({[5-(5,6-difluoro-1H-indole-2-carbonyl)-4H,5H,6H,7H-[1,3]thiazolo[5,4-c]pyridin-2-yl]amino}methyl)cyclobutan-1-ol] | < 1 µM |
| Cc1cc(F)cc2[nH]c(C(=O)N3CCc4nc(NC(=O)C5(C)CC5)sc4C3)cc12 [Example 307, N-[5-(6-fluoro-4-methyl-1H-indole-2-carbonyl)-4H,5H,6H,7H-[1,3]thiazolo[5,4-c]pyridin-2-yl]-1-methylcyclopropane-1-carboxamide] | < 1 µM |
| CC(=O)N1CC(C(=O)Nc2nc3c(s2)CN(C(=O)c2cc4ccccc4[nH]2)CC3)C1 [Example 382, 1-acetyl-N-[5-(1H-indole-2-carbonyl)-4H,5H,6H,7H-[1,3]thiazolo[5,4-c]pyridin-2-yl]azetidine-3-carboxamide] | < 1 µM |
| O=C(c1cc2ccccc2[nH]1)N1CCc2nc(Cl)sc2C1 [Example 207, 2-{2-chloro-4H,5H,6H,7H-[1,3]thiazolo[5,4-c]pyridine-5-carbonyl}-1H-indole] | < 100 µM |
| O=C(c1cc2ccccc2[nH]1)N1CCc2nc(NCC3(O)CC(F)(F)C3)sc2C1 [Example 440, 3,3-difluoro-1-({[5-(1H-indole-2-carbonyl)-4H,5H,6H,7H-[1,3]thiazolo[5,4-c]pyridin-2-yl]amino}methyl)cyclobutan-1-ol] | < 1 µM |
| O=C(c1cc2cc(F)c(Cl)cc2[nH]1)N1CCc2nc(NCC3(O)CCC3)sc2C1 [Example 373, 1-({[5-(6-chloro-5-fluoro-1H-indole-2-carbonyl)-4H,5H,6H,7H-[1,3]thiazolo[5,4-c]pyridin-2-yl]amino}methyl)cyclobutan-1-ol] | < 1 µM |
| CC(C)CC(CO)CNc1nc2c(s1)CN(C(=O)c1cc3ccccc3[nH]1)CC2 (stereo not drawn) [Example 287, 2-({[5-(1H-indole-2-carbonyl)-4H,5H,6H,7H-[1,3]thiazolo[5,4-c]pyridin-2-yl]amino}methyl)-4-methylpentan-1-ol] | < 1 µM |
| CCc1c(F)ccc2[nH]c(C(=O)N3CCc4nc(NCC5CCOC5)sc4C3)cc12 (stereo not drawn) [Example 256, 5-(4-ethyl-5-fluoro-1H-indole-2-carbonyl)-N-[(oxolan-3-yl)methyl]-4H,5H,6H,7H-[1,3]thiazolo[5,4-c]pyridin-2-amine] | < 100 µM |
| O=C(c1cc2ccccc2[nH]1)N1CCc2nc(NC(=O)C3(F)CC3)sc2C1 [Example 337, 1-fluoro-N-[5-(1H-indole-2-carbonyl)-4H,5H,6H,7H-[1,3]thiazolo[5,4-c]pyridin-2-yl]cyclopropane-1-carboxamide] | < 1 µM |
| O=C(c1cc2ccccc2[nH]1)N1CCc2nc(NCC(F)(F)C3CC3)sc2C1 [Example 436, N-(2-cyclopropyl-2,2-difluoroethyl)-5-(1H-indole-2-carbonyl)-4H,5H,6H,7H-[1,3]thiazolo[5,4-c]pyridin-2-amine] | < 1 µM |

Same assay, conditions: Hepatitis B virus, HePAD38, 144 h, read-out: Cell Activity (EC50)

| Compound | EC50 |
| --- | --- |
| O=C(Nc1nc2c(s1)CN(C(=O)c1cc3ccccc3[nH]1)CC2)C1CNC1 [Example 386, N-[5-(1H-indole-2-carbonyl)-4H,5H,6H,7H-[1,3]thiazolo[5,4-c]pyridin-2-yl]azetidine-3-carboxamide hydrochloride] | 1 to 10 µM |

From patent US11267825B2 (AICURIS GMBH & CO. KG, priority 2017, dated 2022)
